Assay results published in ChEMBL document CHEMBL1208791, “Optimization of alpha-ketoamide based p38 inhibitors through modifications to the region that binds to the allosteric site” (Bioorg Med Chem Lett, 2010).
pIC50: −log10 of the molar value.

Experiments:
[1] = biological target: T1, Mitogen-activated protein kinase 14 (Homo sapiens, UniProt Q16539); test: Inhibition of p38 alpha activity by ELISA
[2] = biological target: T1, Mitogen-activated protein kinase 14; test: Inhibition of phospho-p38 alpha activity by ELISA
Blood = test: Ex vivo inhibition of […]-alpha-production in human whole blood; format: functional, tissue-based
THP-1 = test: Inhibition of LPS-induced […]-alpha-production in immortalized human THP1 cells; format: functional, cell-based
[3] = Volume of distribution at steady state in rat at 10 mg/kg, iv or 30 mg/kg, po; format: ADME, organism-based; conditions: in vivo, read-out: Vdss
[4] = Clearance in rat at 10 mg/kg, iv or 30 mg/kg, po; format: ADME, organism-based; conditions: in vivo
[5] = Cmax in rat at 10 mg/kg, iv or 30 mg/kg, po; format: ADME, organism-based; conditions: in vivo
[6] = Tmax in rat at 10 mg/kg, iv or 30 mg/kg, po; format: ADME, organism-based; conditions: in vivo
[7] = Half life in rat at 10 mg/kg, iv or 30 mg/kg, po; format: ADME, organism-based; conditions: in vivo
[8] = AUC in rat at 10 mg/kg, iv or 30 mg/kg, po; format: ADME, organism-based; conditions: plasma
[9] = Oral bioavailability in rat at 30 mg/kg, po; format: ADME, organism-based; conditions: in vivo

T1 sequence (Q16539 whole entry): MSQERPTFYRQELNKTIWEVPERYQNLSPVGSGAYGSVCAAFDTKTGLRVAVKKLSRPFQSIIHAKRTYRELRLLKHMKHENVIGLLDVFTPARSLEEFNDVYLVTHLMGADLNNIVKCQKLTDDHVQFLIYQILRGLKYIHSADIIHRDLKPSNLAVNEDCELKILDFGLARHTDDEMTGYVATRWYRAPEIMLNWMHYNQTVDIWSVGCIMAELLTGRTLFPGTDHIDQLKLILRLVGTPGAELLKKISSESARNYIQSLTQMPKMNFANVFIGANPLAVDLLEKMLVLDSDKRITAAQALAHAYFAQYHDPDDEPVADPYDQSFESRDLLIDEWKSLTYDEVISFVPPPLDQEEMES

| SMILES | pIC50 [1] | pIC50 [2] | other results |
| --- | --- | --- | --- |
| COc1c(NC(=O)C(=O)c2ccc(OCCN3CCOCC3)c3ccccc23)cc(C(C)(C)C)cc1C(=O)NC1CC1 | 7.15 | 6.85 |  |
| COc1c(NC(=O)/C(=N/O)c2ccc(OCCN3CCOCC3)c3ccccc23)cc(C(C)(C)C)cc1NS(C)(=O)=O | 6.70 |  |  |
| COc1c(NC(=O)C(O)c2ccc(OCCN3CCOCC3)c3ccccc23)cc(C(C)(C)C)cc1NS(C)(=O)=O (centres undefined) | 6.41 |  |  |
| COc1c(NC(=O)Cc2ccc(OCCN3CCOCC3)c3ccccc23)cc(C(C)(C)C)cc1NS(C)(=O)=O | 6.72 | 7.05 |  |
| COc1c(NC(=O)C(=O)c2ccc(Nc3ccncn3)c3ccccc23)cc(C(C)(C)C)cc1NS(C)(=O)=O | 7.14 | 9.00 |  |
| COc1c(NC(=O)C(=O)c2ccc(Nc3ccncc3)c3ccccc23)cc(C(C)(C)C)cc1NS(C)(=O)=O | 7.60 | 8.70 |  |
| COc1c(C#N)cc(C(C)(C)C)cc1NC(=O)C(=O)c1ccc(Nc2ccncc2)c2ccccc12 | 7.29 |  | pIC50 (Blood): 6.82 |
| CNc1nccc(Nc2ccc(C(=O)C(=O)Nc3cc(C(C)(C)C)cc(NS(C)(=O)=O)c3OC)c3ccccc23)n1 |  | 7.68 | pIC50 (THP-1): 8.10; pIC50 (Blood): 7.00 |
| COc1c(NC(=O)C(=O)c2ccc(Oc3ccnc(N4CCOCC4)n3)c3ccccc23)cc(C(C)(C)C)cc1NS(C)(=O)=O | 7.42 | 7.89 |  |
| COc1c(C#N)cc(C(C)(C)C)cc1NC(=O)C(=O)c1ccc(-c2cccnc2)c2ccccc12 | 7.11 |  |  |
| COc1c(C#N)cc(C(C)(C)C)cc1NC(=O)C(=O)c1ccc(-c2ccncc2)c2ccccc12 | 7.22 |  |  |
| COc1c(C#N)cc(C(C)(C)C)cc1NC(=O)C(=O)c1ccc(-c2ccc(F)nc2)c2ccccc12 | 6.72 |  |  |
| COc1c(C#N)cc(C(C)(C)C)cc1NC(=O)C(=O)c1ccc(-c2ccnc(C)c2)c2ccccc12 | 7.66 |  |  |
| COc1c(NC(=O)C(=O)c2ccc(OCCN3CCOCC3)c3ccccc23)cc(C(C)(C)C)cc1NS(C)(=O)=O [ITX-5061 FREE BASE] | 7.23 | 7.42 | Vd [3]: 5.2 L/kg; clearance [4]: 26.7 mL/min/kg; Cmax [5]: 1300 ng/mL; Tmax [6]: 3 h; half-life [7]: 3.5 h; AUC [8]: 14000 ng·h/mL; bioavailability [9]: 77% |

More lines, main results first:

| pIC50 [1] | pIC50 [2] | SMILES | other results |
| --- | --- | --- | --- |
| 7.15 |  | COc1c(Cl)cc(C(C)(C)C)cc1NC(=O)C(=O)c1ccc(OCCN2CCOCC2)c2ccccc12 |  |
| 6.60 | 6.51 | CC(C)(C)c1cccc(NC(=O)C(=O)c2ccc(OCCN3CCOCC3)c3ccccc23)c1 |  |
| 7.48 |  | CC(C)(C)c1cc(C#N)cc(NC(=O)C(=O)c2ccc(OCCN3CCOCC3)c3ccccc23)c1 |  |
| 7.55 |  | N#Cc1cc(NC(=O)C(=O)c2ccc(OCCN3CCOCC3)c3ccccc23)cc(N2CCOCC2)c1 |  |
| 7.38 |  | COc1c(C#N)cc(C(C)(C)C)cc1NC(=O)C(=O)c1ccc(OCCN2CCOCC2)c2ccccc12 | Vd [3]: 4.9 L/kg; clearance [4]: 18.3 mL/min/kg; Cmax [5]: 2400 ng/mL; Tmax [6]: 0.5 h; half-life [7]: 9.8 h; AUC [8]: 15000 ng·h/mL; bioavailability [9]: 57% |
| 6.60 |  | COc1ccc(C(C)(C)C)cc1NC(=O)C(=O)c1ccc(OCCN2CCOCC2)c2ccccc12 |  |
